According to US8557853B2, “Aryl fluoroethyl ureas acting as alpha 2 adrenergic agents” (Allergan, Inc., priority 2007, dated 2013):
pEC50: −log10 of the molar value.

Columns and labels:
Type in all cases: cell-based
alpha2A receptor = target: T1, alpha2A receptor (Homo sapiens, UniProt P08913); test: RSAT (Receptor Selection and Amplification Technology) assay, alpha 2A; conditions: for pEC50 / Alpha 2A EC50: RSAT, transfected NIH-3T3 cells, "not active" = not active at concentrations less than 10 micromolar; for Alpha 2A IA: intrinsic activity: ratio of maximal effect of drug to maximal effect of standard full agonist brimonidine (UK14304)
T1 construct: expressed in transfected cells; host or cells: NIH-3T3 cells
T1 sequence (P08913 1-465): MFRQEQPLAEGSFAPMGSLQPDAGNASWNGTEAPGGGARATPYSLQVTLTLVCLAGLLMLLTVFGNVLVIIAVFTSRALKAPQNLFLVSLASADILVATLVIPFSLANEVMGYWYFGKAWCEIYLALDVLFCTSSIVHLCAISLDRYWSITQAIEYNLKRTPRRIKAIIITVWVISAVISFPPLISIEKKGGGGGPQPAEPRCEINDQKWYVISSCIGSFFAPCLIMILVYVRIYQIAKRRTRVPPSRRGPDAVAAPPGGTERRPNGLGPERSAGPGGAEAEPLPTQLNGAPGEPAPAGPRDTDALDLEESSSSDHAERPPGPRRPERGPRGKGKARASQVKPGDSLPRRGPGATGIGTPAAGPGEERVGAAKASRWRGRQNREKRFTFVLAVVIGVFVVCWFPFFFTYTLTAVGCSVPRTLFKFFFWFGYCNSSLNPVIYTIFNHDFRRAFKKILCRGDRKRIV
From the text: (§1) The aryl fluoroethyl ureas of the invention are agonists of alpha2 adrenergic receptors. […] Al, 1995, Pharmacol. Toxicol. 76, pp. 308-311 (incorporated herein by reference) and is also described below. Another reference pertinent to this assay is Conklin et al. (1993) Nature 363:274-6, Receptor Selection and Amplification Technology (RSAT) assay, also incorporated herein by reference.
(§2) The RSAT assay measures a receptor-mediated loss of contact inhibition that results in selective proliferation of receptor-containing cells in a mixed population of confluent cells. The increase in cell number is assessed with an appropriate transfected marker gene such as ∃-galactosidase, the activity of which can be easily measured in a 96-well format. Receptors that activate the G protein, Gq, elicit this response. Alpha 2 receptors, which normally couple to Gi, activate the RSAT response when coexpressed with a hybrid Gq protein that has a Gi receptor recognition domain, called Gq/i5.
(§3) NIH-3T3 cells are plated at a density of 2×10^6 cells in 15 cm dishes and maintained in Dulbecco's modified Eagle's medium supplemented with 10% calf serum. One day later, cells are cotransfected by calcium phosphate precipitation with mammalian expression plasmids encoding p-SV-β-galactosidase (5-10 μg), receptor (1-2 μg) and G protein (1-2 μg). 40 μg salmon sperm DNA may also be included in the transfection mixture. Fresh media is added on the following day and 1-2 days later, cells are harvested and frozen in 50 assay aliquots. Cells are thawed and 100 μl added to 100 μl aliquots of various concentrations of drugs in triplicate in 96-well dishes. Incubations continue 72-96 hr at 37° C. After washing with phosphate-buffered saline, ∃-galactosidase enzyme activity is determined by adding 200 μl of the chromogenic substrate (consisting of 3.5 mM o-nitrophenyl-β-D-galactopyranoside and 0.5% nonidet P-40 in phosphate buffered saline), incubating overnight at 30° C. and measuring optical density at 420 nm. The absorbance is a measure of enzyme activity, which depends on cell number and reflects a receptor-mediated cell proliferation. The efficacy or intrinsic activity is calculated as a ratio of the maximal effect of the drug to the maximal effect of a standard full agonist for each receptor subtype. Brimonidine, also called UK14304, the chemical structure of which is shown below, is used as the standard agonist for the alpha2A, alpha2B and alpha2C receptors.
(§4) The results of the RSAT assay with several exemplary compounds of the invention are disclosed in Table 1 below together with the chemical structures of these compounds. “Not active” means the compounds are not active at concentrations less than 10 micromolar.

alpha2B receptor = target: T2, alpha2B receptor (Homo sapiens, UniProt P18089); test: RSAT (Receptor Selection and Amplification Technology) assay, alpha 2B; conditions: for pEC50: RSAT, transfected NIH-3T3 cells, "not active" = not active at concentrations less than 10 micromolar, read-out: Alpha 2B EC50; for Alpha 2B IA: intrinsic activity: ratio of maximal effect of drug to maximal effect of standard full agonist brimonidine (UK14304)
T2 construct: expressed in transfected cells; host or cells: NIH-3T3 cells
T2 sequence (P18089 1-450): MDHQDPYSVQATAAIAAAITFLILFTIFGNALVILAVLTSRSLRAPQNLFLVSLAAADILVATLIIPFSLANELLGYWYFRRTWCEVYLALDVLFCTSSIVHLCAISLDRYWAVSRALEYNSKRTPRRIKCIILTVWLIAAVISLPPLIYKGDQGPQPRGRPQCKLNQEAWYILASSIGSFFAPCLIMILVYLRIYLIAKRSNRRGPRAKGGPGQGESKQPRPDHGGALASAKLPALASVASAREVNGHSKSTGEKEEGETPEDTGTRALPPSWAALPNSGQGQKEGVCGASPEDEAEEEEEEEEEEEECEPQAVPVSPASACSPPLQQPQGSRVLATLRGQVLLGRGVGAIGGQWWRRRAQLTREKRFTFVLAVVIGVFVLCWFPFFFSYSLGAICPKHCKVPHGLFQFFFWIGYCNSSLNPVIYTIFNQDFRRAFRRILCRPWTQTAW
Method: as §2, §3

alpha2C receptor = target: T3, alpha2C receptor (Homo sapiens, UniProt P18825); test: RSAT (Receptor Selection and Amplification Technology) assay, alpha 2C; conditions: for pEC50 / Alpha 2C EC50: RSAT, transfected NIH-3T3 cells, "not active" = not active at concentrations less than 10 micromolar; for Alpha 2C IA: intrinsic activity: ratio of maximal effect of drug to maximal effect of standard full agonist brimonidine (UK14304)
T3 construct: expressed in transfected cells; host or cells: NIH-3T3 cells
T3 sequence (P18825 1-462): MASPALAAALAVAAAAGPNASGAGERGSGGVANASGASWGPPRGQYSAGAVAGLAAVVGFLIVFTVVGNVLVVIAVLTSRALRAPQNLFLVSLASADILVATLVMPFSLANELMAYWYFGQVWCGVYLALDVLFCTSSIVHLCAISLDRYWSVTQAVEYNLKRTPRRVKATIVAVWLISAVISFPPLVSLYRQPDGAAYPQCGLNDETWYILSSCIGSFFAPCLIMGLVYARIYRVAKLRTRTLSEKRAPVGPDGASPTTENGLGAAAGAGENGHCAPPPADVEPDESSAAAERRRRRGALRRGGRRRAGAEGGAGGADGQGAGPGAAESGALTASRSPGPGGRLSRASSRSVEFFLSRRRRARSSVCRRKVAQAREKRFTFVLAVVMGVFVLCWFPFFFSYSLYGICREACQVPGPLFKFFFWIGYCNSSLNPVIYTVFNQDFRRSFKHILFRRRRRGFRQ
From the text: as §1, §2, §3, §4

| Structure (SMILES) | pEC50 (alpha2A receptor) | Alpha 2A IA (alpha2A receptor) | pEC50 (alpha2B receptor) | Alpha 2B IA (alpha2B receptor) | pEC50 (alpha2C receptor) | Alpha 2C IA (alpha2C receptor) | Alpha 2A EC50 (alpha2A receptor) | Alpha 2C EC50 (alpha2C receptor) |
| --- | --- | --- | --- | --- | --- | --- | --- | --- |
| O=C(NCCF)NCc1cccc(Cl)c1F [Compound 1, 1-(3-chloro-2-fluoro-benzyl)-3-(2-fluoro-ethyl)-urea] | 5.76 | 0.54 | 6.91 | 1.0 | 5.95 | 0.71 | – | – |
| Cc1ccccc1CNC(=O)NCCF [Compound 2, 1-(2-fluoro-ethyl)-3-(2-methyl-benzyl)-urea] | – | – | 6.82 | 1.13 | 5.89 | 0.78 | not active | – |
| O=C(NCCF)NCc1ccccc1F [Compound 3, 1-(2-fluoro-benzyl)-3-(2-fluoro-ethyl)-urea] | – | – | 6.83 | 1.1 | 6.44 | 0.63 | not active | – |
| O=C(NCCF)NCc1cccc(F)c1 [Compound 4, 1-(3-fluoro-benzyl)-3-(2-fluoro-ethyl)-urea] | – | – | 6.66 | 1.14 | 6.43 | 0.47 | not active | – |
| Cc1cccc(CNC(=O)NCCF)c1 [Compound 5, 1-(2-fluoro-ethyl)-3-(3-methyl-benzyl)-urea] | 6.01 | 0.48 | 7.06 | 1.26 | 6.06 | 0.74 | – | – |
| O=C(NCCF)NCc1ccccc1Br [Compound 6, 1-(2-bromo-benzyl)-3-(2-fluoro-ethyl)-urea] | 6.91 | 0.36 | 7.07 | 0.9 | 6.31 | 1.1 | – | – |
| O=C(NCCF)NCc1cccc(Br)c1 [Compound 7, 1-(3-bromo-benzyl)-3-(2-fluoro-ethyl)-urea] | < 5.70 | 0.46 | 6.45 | 0.84 | 6.25 | 0.81 | – | – |
| O=C(NCCF)NCc1ccccc1C(F)(F)F [Compound 8, 1-(2-fluoro-ethyl)-3-(2-trifluoromethyl-benzyl)-urea] | – | – | 6.24 | 0.8 | 6.02 | 0.93 | not active | – |
| O=C(NCCF)NCc1cccc(I)c1 [Compound 9, 1-(2-fluoro-ethyl)-3-(3-iodo-benzyl)-urea] | 5.83 | 0.48 | 6.77 | 0.76 | 6.52 | 0.62 | – | – |
| O=C(NCCF)NCc1cccc(Cl)c1Cl [Compound 10, 1-(2,3-dichloro-benzyl)-3-(2-fluoro-ethyl)-urea] | – | – | 7.06 | 0.91 | 6.35 | 0.86 | not active | – |
| O=C(NCCF)NCc1cccc(C(F)(F)F)c1Cl [Compound 11, 1-(2-chloro-3-trifluoromethyl-benzyl)-3-(2-fluoro-ethyl)-urea] | – | – | 6.97 | 0.9 | 5.96 | 0.66 | not active | – |
| O=C(NCCF)NCc1ccccc1I [Compound 12, 1-(2-fluoro-ethyl)-3-(2-iodo-benzyl)-urea] | – | – | 6.56 | 0.89 | 6.31 | 0.78 | not active | – |
| O=C(NCCF)NCc1cccc(I)c1I [Compound 13, 1-(2-fluoro-ethyl)-3-(2,3-diiodo-benzyl)-urea] | 6.00 | 0.59 | 7.02 | 0.86 | 6.72 | 0.72 | – | – |
| Cc1cccc(CNC(=O)NCCF)c1Cl [Compound 14, 1-(2-chloro-3-methyl-benzyl)-3-(2-fluoro-ethyl)-urea] | 6.44 | 0.34 | 8.07 | 0.85 | 7.00 | 0.66 | – | – |
| O=C(NCCF)NCc1cccc(Br)c1Cl [Compound 15, 1-(3-bromo-2-chloro-benzyl)-3-(2-fluoro-ethyl)-urea] | 6.65 | 0.46 | 7.60 | 1.3 | 6.53 | 0.88 | – | – |
| COc1c(Cl)cccc1CNC(=O)NCCF [Compound 16, 1-(3-chloro-2-methoxy-benzyl)-3-(2-fluoro-ethyl)-urea] | 5.99 | 0.66 | 7.03 | 1.32 | 6.14 | 0.72 | – | – |
| COc1c(C)cccc1CNC(=O)NCCF [Compound 17, 1-(2-fluoro-ethyl)-3-(2-methoxy-3-methyl-benzyl)-urea] | 6.17 | 0.79 | 7.40 | 1.25 | 6.16 | 0.93 | – | – |
| Cc1c(Cl)cccc1CNC(=O)NCCF [Compound 18, 1-(3-chloro-2-methyl-benzyl)-3-(2-fluoro-ethyl)-urea] | 6.40 | 0.36 | 7.40 | 1.24 | 5.86 | 0.94 | – | – |
| COc1c(Br)cccc1CNC(=O)NCCF [Compound 19, 1-(3-bromo-2-methoxy-benzyl)-3-(2-fluoro-ethyl)-urea] | – | – | 5.60 | 0.83 | – | – | not active | not active |
| O=C(NCCF)NCc1cccc2c1OCC2 [Compound 20, 1-(2,3-dihydro-benzofuran-7-ylmethyl)-3-(2-fluoro-ethyl)-urea] | 6.83 | 0.51 | 7.57 | 1.14 | 7.09 | 0.83 | – | – |
| O=C(NCCF)Nc1ccc2c(c1)CCC2 [Compound 21, 1-(2-fluoro-ethyl)-3-indan-5-yl-urea] | – | – | 6.94 | 0.33 | – | – | not active | not active |
